# Data: PubChem BioAssay (NCI)
#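 In this assay, cells in 96-well plates receive the compound at five concentrations for 48 hours. Endpoints are linearly interpolated between the surrounding concentrations. Abbreviation: GI50, concentration required for 50% inhibition of growth. TGI: concentration producing complete growth inhibition.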
# Legend:
# Experiment in all cases: NCI anticancer screen, dose series, 48 h
# RXF 393 renal = system: RXF 393 renal
# SW-620 colon = system: SW-620 colon
# MALME-3M melanoma = system: MALME-3M melanoma
# SK-MEL-5 melanoma = system: SK-MEL-5 melanoma
# EKVX NSCLC = system: EKVX NSCLC
# HOP-62 NSCLC = system: HOP-62 NSCLC
# SN12C renal = system: SN12C renal
# K-562 leukemia = system: K-562 leukemia
# A549 NSCLC = system: A549 NSCLC
# NCI-H522 lung = system: NCI-H522 lung
SMILES,TGI (RXF 393 renal) [µM],TGI (SW-620 colon) [µM],TGI (MALME-3M melanoma) [µM],TGI (SK-MEL-5 melanoma) [µM],TGI (EKVX NSCLC) [µM],TGI (HOP-62 NSCLC) [µM],TGI (SN12C renal) [µM],TGI (K-562 leukemia) [µM],TGI (A549 NSCLC) [µM],GI50 (RXF 393 renal) [µM],GI50 (NCI-H522 lung) [µM],TGI (NCI-H522 lung) [µM],GI50 (SW-620 colon) [µM],GI50 (MALME-3M melanoma) [µM],GI50 (SK-MEL-5 melanoma) [µM],GI50 (EKVX NSCLC) [µM],GI50 (SN12C renal) [µM],GI50 (A549 NSCLC) [µM],GI50 (HOP-62 NSCLC) [µM],GI50 (K-562 leukemia) [µM]
O=C(O)CCSC(=O)Nc1cccc2ccccc12,> 100,> 100,> 100,> 100,> 100,> 100,> 100,> 100,> 100,–,–,–,–,–,–,–,–,–,–,–
O=C(c1ccccc1)C1OC1C(=O)c1ccccc1 (stereo not drawn),10.2,16.1,66,14.3,> 100,–,63.4,–,39.2,2.37,0.323,2.24,3.11,3.24,3.46,6.68,3.22,4.17,–,–
CCn1c(SCC(=O)Nc2cc(C(F)(F)F)ccc2Cl)nc2ccccc2c1=O,66.9,> 100,> 100,> 100,–,33.5,> 100,> 100,–,15.6,–,–,53.4,34.3,25.1,–,76.9,–,14.6,> 100
CCN(CC)CCCNc1n[n+]([O-])c2ccccc2[n+]1[O-],76.2,> 100,25.3,3.54,–,–,27.9,76.1,39.7,–,–,26.5,–,–,–,–,–,–,–,–
CN(C)CCN(C)C(=O)c1cccc2cccc(C(=O)O)c12,> 100,> 100,> 100,> 100,> 100,> 100,> 100,> 100,> 100,–,–,–,–,–,–,–,–,–,–,–
COc1c(C)c(OC)c(C(=O)CC(C)C)c(OC)c1C,> 100,> 100,> 100,> 100,> 100,> 100,> 100,–,> 100,–,–,> 100,–,–,–,–,–,–,–,–
CCN(CCO)CCCC(C)Nc1ccnc2cc(Cl)ccc12 (stereo not drawn),> 100,> 100,> 100,> 100,> 100,> 100,> 100,–,> 100,73.8,> 100,> 100,> 100,> 100,> 100,> 100,> 100,> 100,> 100,–
COc1ccc([Se][Se]c2ccc(OC)cc2OC)c(OC)c1,6.27,7.04,33.2,29.3,–,–,–,7.94,> 100,–,–,4,–,–,–,–,–,–,–,–
Cc1[nH]c2ccccc2c1C1=NO/C(=N\O)C(c2c(C)[nH]c3ccccc23)C1 (stereo not drawn),87.1,> 100,> 100,> 31.6,> 100,64.6,> 100,> 100,> 100,–,–,–,–,–,–,–,–,–,–,–
NNc1nc2ccccc2o1,> 100,> 100,> 100,> 100,> 100,–,> 100,> 100,> 100,–,–,> 100,–,–,–,–,–,–,–,–
CC[C@]12C=CCN3CC[C@@]4(c5ccc(OC)cc5N(C)[C@H]4[C@@](O)(C(=O)OC)[C@@H]1OC(=O)CCC(=O)O[C@H]1CC[C@H]4[C@@H]5CC[C@H]6CC(=O)CC[C@]6(C)[C@H]5CC[C@]14C)[C@@H]32,6.73,13.2,57.7,4.03,> 100,> 100,36.2,–,35.3,2.31,2.85,27,3.05,2.98,1.65,1.78,2.88,4.19,4.83,–
Cc1ccc(/C=N/NS(=O)(=O)c2ccccc2)cc1C,> 100,> 100,> 100,> 100,> 100,> 100,> 100,> 100,> 100,–,–,–,–,–,–,–,–,–,–,–
CC[O-].CC[O-].O=C([CH-]C(=O)c1ccccc1)CCCCCCC(=O)[CH-]C(=O)c1ccccc1.[Ti+4],> 100,> 100,> 100,> 100,> 100,> 100,> 100,> 100,> 100,> 100,–,–,> 100,> 100,> 100,> 100,> 100,> 100,> 100,> 100
CN=C1CN=C(OP(=O)(N2CCOCC2)N2CCOCC2)c2cc(Cl)ccc2N1,> 100,> 100,> 100,> 100,> 100,–,> 100,> 100,> 100,–,–,> 100,–,–,–,–,–,–,–,–
CC(=O)[CH-]C(C)=O.CC(=O)[CH-]C(C)=O.[Cl-].[O]=[V],24.6,> 100,27.9,70.6,> 100,–,> 100,–,> 100,10.9,> 100,> 100,38.9,9.76,28.4,30.3,58.1,36.3,–,–
